Test results reported in the OligoGym collection.
Oligonucleotides are written 5' to 3', each unit as a sugar letter and its base; * is a phosphorothioate linkage, no mark a phosphodiester; rarer units and linkages stand in square brackets, end groups in braces. Plain capitals give the bases only. d = 2'-deoxy (DNA); r = 2'-OH (RNA)

Experiment: reporter assay of Huesken 2005
Details: siRNA
Also: test concentration or dose not given here.

| Substance | normalised inhibition (eCFP-eYFP dual reporter) |
| --- | --- |
| sense rArArUrCrUrGrGrCrArGrArCrUrArCrArGrUrUdTdT / antisense rArArCrUrGrUrArGrUrCrUrGrCrCrArGrArUrUdCdC | 81.7% |
| sense rArArUrGrArGrCrUrCrCrUrUrArCrUrUrArArCdTdT / antisense rGrUrUrArArGrUrArArGrGrArGrCrUrCrArUrUdCdC | 70.8% |
| sense rArCrArCrCrArGrArGrCrCrUrGrCrCrCrCrArCdTdT / antisense rGrUrGrGrGrGrCrArGrGrCrUrCrUrGrGrUrGrUdGdA | 72.8% |
| sense rArCrCrCrUrUrUrArCrArGrArArCrArCrCrCrAdTdT / antisense rUrGrGrGrUrGrUrUrCrUrGrUrArArArGrGrGrUdGdG | 86.5% |
| sense rArCrUrCrCrUrUrCrCrUrUrCrUrCrUrGrArArGdTdT / antisense rCrUrUrCrArGrArGrArArGrGrArArGrGrArGrUdCdC | 50.7% |
| sense rArCrUrGrArUrGrUrUrCrCrUrUrGrUrGrGrArCdTdT / antisense rGrUrCrCrArCrArArGrGrArArCrArUrCrArGrUdGdA | 55.2% |
| sense rArCrUrUrArArCrUrUrCrUrGrArGrCrArArUrAdTdT / antisense rUrArUrUrGrCrUrCrArGrArArGrUrUrArArGrUdAdA | 90.7% |
| sense rArGrArArCrArCrCrCrArGrGrArArUrUrCrUrUdTdT / antisense rArArGrArArUrUrCrCrUrGrGrGrUrGrUrUrCrUdGdT | 84.5% |
| sense rArGrArArGrArArArCrUrUrGrCrUrCrCrArGrAdTdT / antisense rUrCrUrGrGrArGrCrArArGrUrUrUrCrUrUrCrUdCdA | 90% |
| sense rArGrArCrUrArCrArGrUrUrUrCrUrUrUrCrCrCdTdT / antisense rGrGrGrArArArGrArArArCrUrGrUrArGrUrCrUdGdC | 55.6% |
| sense rArGrCrGrGrGrArGrArGrArGrCrArArCrArGrGdTdT / antisense rCrCrUrGrUrUrGrCrUrCrUrCrUrCrCrCrGrCrUdGdC | 43.5% |
| sense rArGrGrUrCrArCrCrArGrArGrUrGrGrArArArCdTdT / antisense rGrUrUrUrCrCrArCrUrCrUrGrGrUrGrArCrCrUdTdT | 94.3% |
| sense rArGrUrGrArUrCrCrCrGrGrGrGrCrUrGrArGrAdTdT / antisense rUrCrUrCrArGrCrCrCrCrGrGrGrArUrCrArCrUdGdG | 94.9% |
| sense rArUrUrGrUrUrCrCrUrGrUrGrArArCrUrGrUrGdTdT / antisense rCrArCrArGrUrUrCrArCrArGrGrArArCrArArUdGdA | 76.9% |
| sense rCrArArUrCrCrGrCrCrCrCrArCrCrCrUrUrUrAdTdT / antisense rUrArArArGrGrGrUrGrGrGrGrCrGrGrArUrUrGdGdG | 80.2% |
| sense rCrArCrCrArGrArGrCrCrUrGrCrCrCrCrArCrCdTdT / antisense rGrGrUrGrGrGrGrCrArGrGrCrUrCrUrGrGrUrGdTdG | 90.4% |
| sense rCrArCrCrArGrArGrUrGrGrArArArCrUrCrArCdTdT / antisense rGrUrGrArGrUrUrUrCrCrArCrUrCrUrGrGrUrGdAdC | 92.8% |
| sense rCrArGrGrGrGrCrArGrCrGrGrGrArGrArGrArGdTdT / antisense rCrUrCrUrCrUrCrCrCrGrCrUrGrCrCrCrCrUrGdAdA | 66.2% |
| sense rCrArGrGrGrUrArUrGrCrArCrArCrCrCrGrUrGdTdT / antisense rCrArCrGrGrGrUrGrUrGrCrArUrArCrCrCrUrGdTdT | 70.6% |
| sense rCrCrArCrArUrGrGrUrGrUrGrGrArArUrCrUrGdTdT / antisense rCrArGrArUrUrCrCrArCrArCrCrArUrGrUrGrGdCdA | 40.2% |
| sense rCrCrArGrArGrUrGrGrArArArCrUrCrArCrArCdTdT / antisense rGrUrGrUrGrArGrUrUrUrCrCrArCrUrCrUrGrGdTdG | 95.3% |
| sense rCrCrArGrGrGrGrArCrArGrGrCrArGrCrArGrGdTdT / antisense rCrCrUrGrCrUrGrCrCrUrGrUrCrCrCrCrUrGrGdGdC | 45.6% |
| sense rCrCrCrGrGrGrGrCrUrGrArGrArArArGrUrUrCdTdT / antisense rGrArArCrUrUrUrCrUrCrArGrCrCrCrCrGrGrGdAdT | 85.4% |
| sense rCrCrUrGrUrCrArGrGrGrGrUrCrGrGrArGrUrGdTdT / antisense rCrArCrUrCrCrGrArCrCrCrCrUrGrArCrArGrGdCdA | 72.5% |
| sense rCrCrUrUrGrGrArArArCrGrArArCrCrArArGrCdTdT / antisense rGrCrUrUrGrGrUrUrCrGrUrUrUrCrCrArArGrGdGdA | 85.8% |
| sense rCrGrGrGrGrCrUrGrArGrArArArGrUrUrCrGrUdTdT / antisense rArCrGrArArCrUrUrUrCrUrCrArGrCrCrCrCrGdGdG | 95.2% |

| Substance | normalised inhibition (eCFP-eYFP dual reporter) |
| --- | --- |
| sense rCrGrUrUrUrCrArUrUrGrUrUrCrCrUrGrUrGrAdTdT / antisense rUrCrArCrArGrGrArArCrArArUrGrArArArCrGdAdC | 54.2% |
| sense rCrUrCrUrCrUrGrCrCrArCrArUrGrGrUrGrUrGdTdT / antisense rCrArCrArCrCrArUrGrUrGrGrCrArGrArGrArGdAdC | 46.7% |
| sense rCrUrCrUrGrUrCrUrCrUrCrUrGrCrCrArCrArUdTdT / antisense rArUrGrUrGrGrCrArGrArGrArGrArCrArGrArGdCdC | 62.3% |
| sense rCrUrUrArGrUrCrCrCrCrUrCrUrUrUrCrUrGrGdTdT / antisense rCrCrArGrArArArGrArGrGrGrGrArCrUrArArGdGdG | 87.5% |
| sense rCrUrUrCrUrGrArGrCrArArUrArUrCrCrCrCrAdTdT / antisense rUrGrGrGrGrArUrArUrUrGrCrUrCrArGrArArGdTdT | 93% |
| sense rCrUrUrGrArGrGrGrArGrArGrUrUrGrUrArCrCdTdT / antisense rGrGrUrArCrArArCrUrCrUrCrCrCrUrCrArArGdCdC | 63.4% |
| sense rCrUrUrGrCrCrUrCrUrGrArGrGrArArUrGrArGdTdT / antisense rCrUrCrArUrUrCrCrUrCrArGrArGrGrCrArArGdAdA | 59.8% |
| sense rGrArGrArGrArGrCrArArCrArGrGrGrUrArUrGdTdT / antisense rCrArUrArCrCrCrUrGrUrUrGrCrUrCrUrCrUrCdCdC | 85.5% |
| sense rGrArGrGrArCrUrCrCrUrUrCrCrUrUrCrUrCrUdTdT / antisense rArGrArGrArArGrGrArArGrGrArGrUrCrCrUrCdTdG | 81.2% |
| sense rGrArGrUrCrArArArGrGrUrCrArCrCrArGrArGdTdT / antisense rCrUrCrUrGrGrUrGrArCrCrUrUrUrGrArCrUrCdCdC | 85.9% |
| sense rGrArUrUrCrCrArCrCrArGrUrUrUrArGrArArGdTdT / antisense rCrUrUrCrUrArArArCrUrGrGrUrGrGrArArUrCdTdG | 84% |
| sense rGrArUrUrUrArGrGrCrUrUrGrArGrGrGrArGrAdTdT / antisense rUrCrUrCrCrCrUrCrArArGrCrCrUrArArArUrCdCdA | 90.8% |
| sense rGrCrArArCrArGrGrGrUrArUrGrCrArCrArCrCdTdT / antisense rGrGrUrGrUrGrCrArUrArCrCrCrUrGrUrUrGrCdTdC | 72.5% |
| sense rGrCrCrCrUrCrCrUrGrUrGrArCrCrUrCrCrArUdTdT / antisense rArUrGrGrArGrGrUrCrArCrArGrGrArGrGrGrCdAdC | 89% |
| sense rGrCrCrUrArCrGrGrGrArGrUrCrArArArGrGrUdTdT / antisense rArCrCrUrUrUrGrArCrUrCrCrCrGrUrArGrGrCdGdT | 91.5% |
| sense rGrCrCrUrUrCrArUrCrCrArCrCrUrUrCrCrCrUdTdT / antisense rArGrGrGrArArGrGrUrGrGrArUrGrArArGrGrCdAdG | 85.7% |
| sense rGrGrCrArGrArCrUrArCrArGrUrUrUrCrUrUrUdTdT / antisense rArArArGrArArArCrUrGrUrArGrUrCrUrGrCrCdAdG | 86% |
| sense rGrGrCrArGrCrGrGrGrArGrArGrArGrCrArArCdTdT / antisense rGrUrUrGrCrUrCrUrCrUrCrCrCrGrCrUrGrCrCdCdC | 61.9% |
| sense rGrGrCrArGrGrArGrArUrArGrCrCrCrArGrGrGdTdT / antisense rCrCrCrUrGrGrGrCrUrArUrCrUrCrCrUrGrCrCdAdC | 67.7% |
| sense rGrGrCrUrCrUrGrUrCrUrCrUrCrUrGrCrCrArCdTdT / antisense rGrUrGrGrCrArGrArGrArGrArCrArGrArGrCrCdAdC | 45.8% |
| sense rGrGrCrUrUrUrGrGrArGrCrCrCrUrUrCrUrGrCdTdT / antisense rGrCrArGrArArGrGrGrCrUrCrCrArArArGrCrCdTdA | 73.7% |
| sense rGrGrUrGrGrCrUrCrUrGrUrCrUrCrUrCrUrGrCdTdT / antisense rGrCrArGrArGrArGrArCrArGrArGrCrCrArCrCdGdG | 71.5% |
| sense rGrUrCrCrCrUrGrArGrGrArGrCrCrCrUrUrArGdTdT / antisense rCrUrArArGrGrGrCrUrCrCrUrCrArGrGrGrArCdGdG | 85.8% |
| sense rGrUrCrGrUrUrCrGrUrGrGrUrCrGrUrUrUrCrAdTdT / antisense rUrGrArArArCrGrArCrCrArCrGrArArCrGrArCdCdA | 39.3% |
| sense rUrArCrUrCrUrUrGrCrUrCrUrCrUrGrGrArGrUdTdT / antisense rArCrUrCrCrArGrArGrArGrCrArArGrArGrUrAdGdA | 57.9% |
| sense rUrArGrGrCrUrUrGrArGrGrGrArGrArGrUrUrGdTdT / antisense rCrArArCrUrCrUrCrCrCrUrCrArArGrCrCrUrAdAdA | 76.7% |
